# Assay: Human HepG2 cell viability assay in 384 well format
# Format: toxicity, cell-based
# Parameters: dose 125 nL, time 70.5 hour; cytotoxicity at 70.5 h: concentration not given beside the values
# Details: HepG2 cells, read-out: Inhibition
structure (smiles),measurement,value
O=C(c1ccco1)N1CCO[C@@H]2CN(c3ccccc3)CC[C@@H]2C1,cytotoxicity at 70.5 h,29.2%
Cn1cccc1C(=O)NCc1cn2c(n1)CN(CC1CCOC1)CC2 (stereo not drawn),cytotoxicity at 70.5 h,17.2%
O=C([C@H]1CN(Cc2nccs2)C[C@H]2OCC[C@@H]12)N1CCCC1,cytotoxicity at 70.5 h,10.2%
Cc1csc(CN2C[C@@H]3COC[C@]3(C(=O)NCc3ccco3)C2)n1,cytotoxicity at 70.5 h,14.6%
CC(=O)NCC(=O)N1CCN(C)c2ncccc2C1,cytotoxicity at 70.5 h,-11.3%
Cc1cc(C(=O)N2CC[C@H]3[C@@H]2CCC(=O)N3c2ccccc2)no1,cytotoxicity at 70.5 h,-8.05%
CC(C)CCN1CCc2nc(N3CCOCC3)nc(NC(C)C)c2C1,cytotoxicity at 70.5 h,-16.5%
c1cc(CN2CCCn3nnc(COCC4CC4)c3C2)ccn1,cytotoxicity at 70.5 h,-15.6%
CN(C)C(=O)CN1CCC2(CCCN(Cc3ccsc3)C2)C1=O (stereo not drawn),cytotoxicity at 70.5 h,-15.6%
c1cnc(N2CCOCC3(CNCCO3)C2)nc1 (stereo not drawn),cytotoxicity at 70.5 h,15.5%
Cn1cccc1C(=O)NCc1cn2c(n1)CN(C(=O)c1ccsc1)CC2,cytotoxicity at 70.5 h,-8.13%
CN1CC2(COCCN(c3ncccn3)C2)OCC1=O (stereo not drawn),cytotoxicity at 70.5 h,-11.5%
CCCN1CCc2nc(N3CCOCC3)nc(NC(C)C)c2C1,cytotoxicity at 70.5 h,-8.9%
Cc1nc(N2CCOCC2)nc2c1CN(CC(=O)N(C)C)CC2,cytotoxicity at 70.5 h,-13.5%
COCC1CN(C(=O)c2cccs2)Cc2nccn2C1 (stereo not drawn),cytotoxicity at 70.5 h,-8.64%
COCCC(=O)N1CCC2(CCN(Cc3cccc(F)c3)C2)C1 (stereo not drawn),cytotoxicity at 70.5 h,24.8%
Fc1cnc(NCC2Cn3nnc(-c4ccccc4)c3CO2)nc1 (stereo not drawn),cytotoxicity at 70.5 h,24.4%
Fc1cccc(-c2nnn3c2COC(CNc2ncccn2)C3)c1 (stereo not drawn),cytotoxicity at 70.5 h,26.8%
c1csc(CN2CC[C@H]3O[C@@H](COCC4CC4)CC[C@H]32)c1,cytotoxicity at 70.5 h,27%
CCCS(=O)(=O)NC1CCc2c(ccc(=O)n2CC2CC2)C1 (stereo not drawn),cytotoxicity at 70.5 h,-8.69%
COCCN1CCn2cc(CN(C)Cc3ccco3)nc2C1,cytotoxicity at 70.5 h,-7.59%
c1ccc(-c2nnn3c2COC(CNCC2CC2)C3)cc1 (stereo not drawn),cytotoxicity at 70.5 h,-0.253%
Cc1ccc2c(n1)N(CCN(C)C)CCN(C(=O)N1CCOCC1)C2,cytotoxicity at 70.5 h,-3.39%
C[C@H]1C[C@H]2CN(C(=O)CCOc3ccccc3)CC[C@H]2O1,cytotoxicity at 70.5 h,-1.04%
Cn1cccc1C(=O)N1CCn2cc(CN3CCCC3)nc2C1,cytotoxicity at 70.5 h,-1.14%
C[C@H]1C[C@H]2CN(C(=O)CC3CC3)CC[C@H]2O1,cytotoxicity at 70.5 h,-7.47%
CCC1(CO)CCCN(C(=O)c2cc(COc3cccc(F)c3)[nH]n2)C1 (stereo not drawn),cytotoxicity at 70.5 h,-3.53%
Cc1nc[nH]c1CN1CCCC12CCN(c1ccccn1)CC2,cytotoxicity at 70.5 h,-3.64%
CN(C)CCN1CC2(CCC1=O)CCN(C(=O)c1ccn(C)n1)CC2,cytotoxicity at 70.5 h,-2.52%
CCn1c(C2CCCN(Cc3ccnc4ccccc34)C2)nn(C)c1=O (stereo not drawn),cytotoxicity at 70.5 h,-7.68%
CCC[C@H]1CN(S(=O)(=O)c2ccc(Cl)cc2)C[C@@H]1NC(C)=O,cytotoxicity at 70.5 h,22.5%
COc1cc(Oc2ccc(C#N)cn2)ccc1CN1CCCC1,cytotoxicity at 70.5 h,-5.77%
O=C(NCCC1CCCCO1)c1coc(COc2ccc(F)cc2)n1 (stereo not drawn),cytotoxicity at 70.5 h,-6.58%
OC1(CN2CCC(Oc3cccc(C(F)(F)F)c3)CC2)CCNC1 (stereo not drawn),cytotoxicity at 70.5 h,-7.31%
O=C(O)c1cccnc1N1CCN(Cc2ccc(F)cc2)C(CCO)C1 (stereo not drawn),cytotoxicity at 70.5 h,22.4%
O=C(c1ccc(-n2cccn2)cc1Cl)N1CCCC(O)(CO)C1 (stereo not drawn),cytotoxicity at 70.5 h,-4.68%
N[C@H]1CN(CCCOc2ccccc2)C[C@@H]1C1CC1,cytotoxicity at 70.5 h,-3.74%
Cc1nccn1CCC(=O)N1CCCN(CCCc2ccccc2)CC1,cytotoxicity at 70.5 h,1.37%
O=C(c1cccc(-c2ncc[nH]2)c1)N1CC[C@H](CO)[C@@H](O)C1,cytotoxicity at 70.5 h,-2.73%
Cc1cc(N2CCCC(N(C)C)C2)n2nc(C)cc2n1 (stereo not drawn),cytotoxicity at 70.5 h,-17%
Cc1noc2ncnc(NC(CC(C)(C)C)c3cccnc3)c12 (stereo not drawn),cytotoxicity at 70.5 h,-14%
c1ccc(-c2cccc(N3CCC(NCCc4cscn4)CC3)c2)cc1,cytotoxicity at 70.5 h,-7.94%
CN1CSC[C@H]1C(=O)N1CCC(Cc2ccccc2F)CC1,cytotoxicity at 70.5 h,-4.33%
CN(Cc1cc(C2CC2)on1)C(=O)CN1CC(c2ccccc2)CC1=O (stereo not drawn),cytotoxicity at 70.5 h,-8.22%
CCc1nc(CNC(=O)c2ccc(C(C)N3CCCCC3)o2)cc(=O)[nH]1 (stereo not drawn),cytotoxicity at 70.5 h,-6.44%
Cc1cc(=O)c(C(=O)N2CCC(C(O)Cc3ccccc3)CC2)c(C)[nH]1 (stereo not drawn),cytotoxicity at 70.5 h,-14.4%
Cc1ccccc1OC1(C(=O)O)CCN(C(=O)CCc2ccco2)CC1,cytotoxicity at 70.5 h,-3.93%
COCCN(CCOC)c1nc2c(s1)c(C)nn2C,cytotoxicity at 70.5 h,-13.8%
Cc1c[nH]c(CN2CCCCC2CCn2cccn2)c(C)c1=O (stereo not drawn),cytotoxicity at 70.5 h,-10.2%
COc1ccc(-c2cc(C3CC3)c(C#N)c(N)n2)cc1F,cytotoxicity at 70.5 h,11.2%
Cc1occc1C(=O)N1CCO[C@H]2[C@H](Oc3cccnc3)CC[C@@H]21,cytotoxicity at 70.5 h,14.6%
O=C(O)CCC(=O)N1CCN(CC2CC2)c2ncccc2C1,cytotoxicity at 70.5 h,22.2%
O=C(Cc1ccsc1)N1CCN(CC2CC2)c2ncccc2C1,cytotoxicity at 70.5 h,-14%
CN(C)C(=O)CN1CCC2(CCCN(Cc3cccs3)C2)C1=O (stereo not drawn),cytotoxicity at 70.5 h,-12.9%
Cc1occc1C(=O)N1Cc2nccn2CC(CN2CCCC2)C1 (stereo not drawn),cytotoxicity at 70.5 h,-14.1%
CC(C)NC(=O)N1CCN(CC2CC2)c2ncccc2C1,cytotoxicity at 70.5 h,-15.2%
Cc1occc1C(=O)N1Cc2nccn2CC(CN2CCOCC2)C1 (stereo not drawn),cytotoxicity at 70.5 h,-6.67%
COCCN1CCCC2(CCN(c3ccsc3)C2=O)C1 (stereo not drawn),cytotoxicity at 70.5 h,-7.27%
COCCC(=O)N1CCC2(CCN(Cc3cccc(F)c3)CC2)C1,cytotoxicity at 70.5 h,-4.51%
COCCNC(=O)[C@H]1C[C@@H]2CCN(CCc3ccccc3)C[C@H]2O1,cytotoxicity at 70.5 h,-11.2%
O=C(NCC1CC1)[C@H]1C[C@@H]2CCN(CCc3ccccc3)C[C@H]2O1,cytotoxicity at 70.5 h,-4.59%
Cc1ccc(CN2CCOC3(COCCN(C(C)C)C3)C2)o1 (stereo not drawn),cytotoxicity at 70.5 h,-12.3%
Cc1ccc(CN2CCCn3nnc(COCCN(C)C)c3C2)s1,cytotoxicity at 70.5 h,-16%
Cn1cccc1C(=O)NCc1cn2c(n1)CN(Cc1ccccn1)CC2,cytotoxicity at 70.5 h,-13.2%
Cc1ncsc1CN1C[C@@H]2COC[C@]2(C(=O)NCc2ccccn2)C1,cytotoxicity at 70.5 h,-9.2%
Cc1ncsc1CN1C[C@@H]2COC[C@]2(C(=O)NCc2cccnc2)C1,cytotoxicity at 70.5 h,-14.8%
c1cncc(CN2CCCn3nnc(COCC4CC4)c3C2)c1,cytotoxicity at 70.5 h,-9.26%
Fc1cccc(N2CCCC3(CN(Cc4ccco4)CCO3)C2)c1 (stereo not drawn),cytotoxicity at 70.5 h,-11.7%
Cc1ccc2c(n1)N(CCN(C)C)CCN(C(=O)c1ccoc1)C2,cytotoxicity at 70.5 h,-11.8%
Cn1cc(CN2CC[C@H]3O[C@@H](COCc4cccnc4)CC[C@H]32)cn1,cytotoxicity at 70.5 h,-12%
Cn1cc(CN2CCOC3(CCCN(c4cccc(F)c4)C3)C2)cn1 (stereo not drawn),cytotoxicity at 70.5 h,-7.93%
Cc1ccc(CN2CCOC3(CCCN(c4cccc(F)c4)C3)C2)o1 (stereo not drawn),cytotoxicity at 70.5 h,-6.42%
Fc1ccc(CN2CC[C@H]3O[C@@H](COCc4cccnc4)CC[C@H]32)cc1,cytotoxicity at 70.5 h,-6.39%
c1ccc(COC[C@H]2CC[C@H]3[C@H](CCN3Cc3cccs3)O2)nc1,cytotoxicity at 70.5 h,-3.77%
CCCC(=O)N1CCN(CCN(C)C)c2nc(C)ccc2C1,cytotoxicity at 70.5 h,-2.97%
CN(Cc1cn2c(n1)CN(Cc1ccc(F)cc1)CC2)Cc1ccco1,cytotoxicity at 70.5 h,-8.36%
c1ccc(COC[C@H]2CC[C@H]3[C@H](CCN3Cc3cccnc3)O2)nc1,cytotoxicity at 70.5 h,9.23%
COc1ccc(CN2C[C@@H]3COC[C@@H](N4CCN(C)CC4)[C@@H]3C2)cc1,cytotoxicity at 70.5 h,0.325%
